{"source": "patent US11033550B2", "about": "“Medicament” (TAKEDA PHARMACEUTICAL COMPANY LIMITED, priority 2016, dated 2021)", "key": {"[1]": {"conditions": "Non Patent Literature 7; cited from earlier work"}, "[2]": {"test_system": "monocrotaline (MCT)-induced pulmonary hypertensive rats", "conditions": "Non Patent Literatures 1 to 5; cited from earlier work"}, "[3]": {"test_system": "hypoxia-induced pulmonary hypertensive (HPH) mice", "conditions": "Non Patent Literatures 1 to 5; cited from earlier work"}, "[4]": {"test_system": "monocrotaline-induced pulmonary hypertensive rat model", "experiment": "Right ventricular pressure (RVP) by catheterization in monocrotaline-induced pulmonary hypertensive rat model", "type": "in vivo", "conditions": "for RVP: measured 28 days after MCT, mean", "protocol": "(§1) Monocrotaline (MCT) was subcutaneously injected at 50 mg/kg (in 50% dimethyl sulfoxide solution) to male Sprague-Dawley rats having a body weight of 250 g ± 10% to prepare pulmonary hypertensive rat models. Compound A′ and the same amount of a vehicle were orally administered to a compound A′ administration group (dose: 1 mg/kg, 3 mg/kg, or 10 mg/kg) and a control group, respectively, every day over 14 days from the 14th day after the MCT administration. This experiment was carried out using these groups each involving 9 rats (12 rats were used only in a vehicle control group). • (2) Effect on Right Ventricular Pressure (RVP)\n(§2) The right ventricular pressure (RVP) was measured by catheterization for the rats that survived at 28 days after MCT administration (negative control group (monocrotaline non-administered group), 9 rats; vehicle control group, 8 rats; compound A′ 1 mg/kg administration group, 9 rats; compound A′ 3 mg/kg administration group, 5 rats; compound A′ 10 mg/kg administration group, 9 rats; total 40 rats)."}, "[5]": {"target": "T1, interaction between human NHE1 and human CHP1 (Homo sapiens, UniProt P19634+Q99653)", "T1 construct": "made in house; host or cells: NHE1: FreeStyle 293 cells (microsomal fraction); CHP1: wheat germ cell-free translation system", "T1 sequence (P19634 whole entry)": "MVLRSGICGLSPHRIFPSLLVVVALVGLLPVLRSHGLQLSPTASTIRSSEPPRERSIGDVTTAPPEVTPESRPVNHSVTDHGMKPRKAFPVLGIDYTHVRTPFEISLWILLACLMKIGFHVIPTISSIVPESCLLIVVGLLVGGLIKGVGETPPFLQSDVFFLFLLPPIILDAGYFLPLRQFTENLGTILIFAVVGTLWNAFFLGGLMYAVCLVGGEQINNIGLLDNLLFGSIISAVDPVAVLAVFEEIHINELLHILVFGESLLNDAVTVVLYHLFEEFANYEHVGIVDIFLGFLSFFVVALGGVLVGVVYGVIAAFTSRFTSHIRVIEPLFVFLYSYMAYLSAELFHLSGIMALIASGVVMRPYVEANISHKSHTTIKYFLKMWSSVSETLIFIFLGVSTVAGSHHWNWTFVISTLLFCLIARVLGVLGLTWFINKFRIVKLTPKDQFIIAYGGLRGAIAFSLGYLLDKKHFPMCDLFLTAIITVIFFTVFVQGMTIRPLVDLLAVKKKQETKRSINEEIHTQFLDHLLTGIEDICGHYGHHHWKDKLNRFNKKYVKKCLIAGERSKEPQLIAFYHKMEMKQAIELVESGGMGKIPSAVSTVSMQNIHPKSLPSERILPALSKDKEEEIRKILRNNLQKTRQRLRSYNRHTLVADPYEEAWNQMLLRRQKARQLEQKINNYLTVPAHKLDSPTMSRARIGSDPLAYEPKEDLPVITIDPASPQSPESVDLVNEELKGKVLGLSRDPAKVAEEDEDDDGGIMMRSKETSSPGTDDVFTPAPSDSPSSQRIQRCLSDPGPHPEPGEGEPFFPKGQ", "T1 sequence (Q99653 whole entry)": "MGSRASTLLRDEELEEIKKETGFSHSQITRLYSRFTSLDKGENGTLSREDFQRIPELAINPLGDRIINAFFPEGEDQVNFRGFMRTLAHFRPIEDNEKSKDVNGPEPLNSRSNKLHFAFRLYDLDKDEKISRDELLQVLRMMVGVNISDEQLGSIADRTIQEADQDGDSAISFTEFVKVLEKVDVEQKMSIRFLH", "experiment": "CHP1-NHE1 interaction, AlphaScreen protein interaction measurement system", "type": "binding", "protocol": "The inhibitory activity of compound A′ on the interaction between human NHE1 and human CHP1 was evaluated in a protein interaction measurement system using an amplified luminescence proximity homogeneous assay (AlphaScreen™ (PerkinElmer)). A microsomal fraction of FLAG-tagged full-length human NHE1 (Accession No. NM 003047) was prepared by being expressed in human embryonic kidney cell-derived FreeStyle™ 293 cells. Also, biotinylated full-length human CHP1 (Accession No. NM 007236) was expressed in a wheat germ cell-free translation system and purified. The NHE1 microsomal fraction and CHP 1 were diluted with an assay buffer (25 mM Tris-HCl (pH 7.4), 137 mM NaCl, 2.7 mM KCl, 0.1% BSA, 1 mM DTT), and compound A′ was added thereto. Then, the mixture was added to an Alpha Plate-384 Shallow Well (Perkin Elmer) in an amount of 2 μL/well, and reacted at room temperature for 60 minutes. Acceptor Beads and Donor Beads accompanying an AlphaScreen FLAG(M2) Detection Kit (PerkinElmer) were added thereto each in an amount of 2 μL/well, and the mixture was reacted at room temperature for 60 minutes. Thereafter, the AlphaScreen signal intensity was measured using an EnSpire Multi-label reader (PerkinElmer). Different concentrations of compound A′ (concentration: 50.0 nM to 0.8 nM) were evaluated in this test system. • (2) Results"}, "[6]": {"target": "T2, calcium-sensing receptor (CaSR) (Homo sapiens, UniProt P41180)", "T2 sequence (P41180 20-1078)": "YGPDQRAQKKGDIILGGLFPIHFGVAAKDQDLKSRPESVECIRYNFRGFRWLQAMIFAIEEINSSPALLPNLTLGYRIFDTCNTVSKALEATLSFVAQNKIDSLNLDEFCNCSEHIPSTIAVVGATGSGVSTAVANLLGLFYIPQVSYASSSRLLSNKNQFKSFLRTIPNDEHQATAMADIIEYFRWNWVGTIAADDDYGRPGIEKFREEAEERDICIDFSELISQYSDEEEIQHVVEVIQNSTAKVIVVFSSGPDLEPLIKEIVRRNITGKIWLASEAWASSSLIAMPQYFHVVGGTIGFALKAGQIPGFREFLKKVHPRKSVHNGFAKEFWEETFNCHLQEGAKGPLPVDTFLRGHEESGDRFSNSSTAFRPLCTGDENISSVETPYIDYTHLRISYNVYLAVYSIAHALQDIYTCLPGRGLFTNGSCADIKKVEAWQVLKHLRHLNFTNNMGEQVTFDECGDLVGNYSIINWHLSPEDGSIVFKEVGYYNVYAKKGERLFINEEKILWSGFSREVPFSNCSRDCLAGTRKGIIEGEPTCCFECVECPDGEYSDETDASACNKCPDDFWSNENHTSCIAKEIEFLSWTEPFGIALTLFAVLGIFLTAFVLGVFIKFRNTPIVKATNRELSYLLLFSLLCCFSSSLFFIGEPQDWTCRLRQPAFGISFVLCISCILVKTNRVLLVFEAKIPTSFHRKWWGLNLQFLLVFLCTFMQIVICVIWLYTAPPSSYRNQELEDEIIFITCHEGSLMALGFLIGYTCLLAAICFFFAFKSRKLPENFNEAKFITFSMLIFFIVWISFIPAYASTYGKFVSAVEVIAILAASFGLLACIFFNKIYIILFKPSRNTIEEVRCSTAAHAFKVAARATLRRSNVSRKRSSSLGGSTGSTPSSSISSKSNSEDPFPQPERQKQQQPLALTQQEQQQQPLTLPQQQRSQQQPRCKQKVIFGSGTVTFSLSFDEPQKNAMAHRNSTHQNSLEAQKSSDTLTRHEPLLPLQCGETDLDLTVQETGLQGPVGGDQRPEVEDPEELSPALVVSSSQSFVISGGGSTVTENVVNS", "conditions": "Non Patent Literature 6; cited from earlier work"}, "[7]": {"test_system": "monocrotaline-induced pulmonary hypertensive rat models", "experiment": "Survival rate (Kaplan-Meier) in monocrotaline-induced pulmonary hypertensive rat models", "type": "in vivo", "conditions": "1, 3 or 10 mg/kg orally once every day over 14 days from 14th day after MCT; result in words", "protocol": "as §1, with “230” for “250”, “10 g” for “10%”, “respectively, once” for “respectively,”, “12 rats.” for “9 rats (12 rats were used only in a vehicle control group).”, “Survival Rate” for “Right Ventricular Pressure (RVP)”"}, "[8]": {"test_system": "monocrotaline-induced pulmonary hypertensive rat model", "experiment": "Right ventricular systolic pressure (RVSP) by catheterization in monocrotaline-induced pulmonary hypertensive rat model", "type": "in vivo", "conditions": "for RVSP: measured 28 days after MCT, mean", "protocol": "as §1\nas §2, with “ventricular systolic” for “ventricular”, “(RVSP)” for “(RVP)”, “((negative” for “(negative”, “rats)).” for “rats).”"}, "[9]": {"test_system": "monocrotaline-induced pulmonary hypertensive rat model", "experiment": "Right ventricular hypertrophy, RV/(LV+S), in monocrotaline-induced pulmonary hypertensive rat model", "type": "in vivo", "conditions": "for RV/(LV + S): 28 days after MCT, index for right cardiomegaly, mean", "protocol": "as §1\nThe right ventricle weight (RV), left ventricle weight (LV), and interventricular septum weight (S) were measured for pulmonary hypertensive rat models that survived at 28 days after MCT administration (negative control group (monocrotaline non-administered group), 9 rats; vehicle control group, 8 rats; compound A′ 1 mg/kg administration group, 9 rats; compound A′ 3 mg/kg administration group, 5 rats; compound A′ 10 mg/kg administration group, 9 rats; total 40 rats)), and RV/(LV+S) was determined as an index for right cardiomegaly."}, "[10]": {"test_system": "monocrotaline-induced pulmonary hypertensive rat model", "experiment": "Pulmonary artery medial wall thickening (Elastica van Gieson staining) in monocrotaline-induced pulmonary hypertensive rat model", "type": "in vivo", "conditions": "for Thickness of pulmonary artery medial wall: 10 mg/kg orally, 28 days after MCT, mean", "protocol": "as §1\n(§3) Concerning the pulmonary hypertensive rat models that survived at 28 days after MCT administration (negative control group (monocrotaline non-administered group), 9 rats; vehicle control group, 8 rats; compound A′ 10 mg/kg administration group, 9 rats), tissue specimens of pulmonary tissue sections were prepared from 5 rats per group (total 15 rats) by Elastica van Gieson staining method to measure the thickening of the medial wall of the pulmonary artery."}, "[11]": {"test_system": "monocrotaline-induced pulmonary hypertensive rat model", "experiment": "Pulmonary artery occlusion index (Elastica van Gieson staining) in monocrotaline-induced pulmonary hypertensive rat model", "type": "in vivo", "conditions": "for Pulmonary artery occlusion: 10 mg/kg orally, 28 days after MCT, twice medial wall thickness divided by artery diameter, mean", "protocol": "as §1\nas §3, with “occlusion” for “the thickening of the medial wall”, “artery. A value obtained by dividing a value that is twice as much as the thickness of the pulmonary artery medial wall by the diameter of the pulmonary artery was used as an index of occlusion.” for “artery.”"}, "[12]": {"conditions": "1 mg/kg orally every day over 14 days from 14th day after MCT"}, "[13]": {"conditions": "3 mg/kg orally every day over 14 days from 14th day after MCT"}, "[14]": {"conditions": "10 mg/kg orally every day over 14 days from 14th day after MCT"}, "[15]": {"conditions": "Diameter of pulmonary artery (<50 μM)"}}, "data": [{"smiles": "C[C@@H](N[C@H]1CCCC[C@@H]1NC(=O)c1ccc(Cl)cc1)c1cccc2ccccc12", "note": "[Calhex 231]", "values": [{"measurement": "Effect on the action of an existing PAH drug (PDE 5 inhibitor/sildenafil)", "setting": "[1]", "value": "enhance the effect"}]}, {"smiles": "CC(C)(Cc1ccc2ccccc2c1)NC[C@@H](O)COc1cccc(Cl)c1C#N", "note": "[NPS-2143]", "values": [{"measurement": "Reported effects on pulmonary hypertension pathology", "setting": "[2]", "value": "inhibit cardiac hypertrophy, a rise in right ventricular systolic pressure, myocardial tissue fibrosis, and pulmonary vascular remodeling"}, {"measurement": "Effect on the action of an existing PAH drug (PDE 5 inhibitor/sildenafil)", "setting": "[1]", "value": "enhance the effect"}, {"measurement": "Reported effects on pulmonary hypertension pathology", "setting": "[3]", "value": "inhibit cardiac hypertrophy, a rise in right ventricular systolic pressure, myocardial tissue fibrosis, and pulmonary vascular remodeling"}]}, {"smiles": "CCc1ccc(C(CC)(CC)NC(=O)c2c(C)nn3c2N[C@@H](c2ccccc2)CC3(C)C)cc1", "note": "[Compound A′, (5R)-N-[1-Ethyl-1-(4-ethylphenyl)propyl]-2,7,7-trimethyl-5-phenyl-4,5,6,7-tetrahydropyrazolo[1,5-a]pyrimidine-3-carboxamide]", "values": [{"measurement": "RVP", "setting": "[4]; [12]", "value": 26.4, "unit": "mmHg"}, {"measurement": "RVP", "setting": "[4]; [13]", "value": 22.4, "unit": "mmHg"}, {"measurement": "RVP", "setting": "[4]; [14]", "value": 17.8, "unit": "mmHg"}, {"measurement": "Effect on right ventricular pressure, in words", "setting": "[4]; at 28 days after MCT administration, summary of Table 1", "value": "remarkably improved"}, {"measurement": "IC50", "setting": "[5]; AlphaScreen, FLAG-tagged human NHE1 microsomal fraction and biotinylated human CHP1, 50.0 nM to 0.8 nM tested, read-out: CHP1-NHE1 interaction activity (50% inhibitory concentration)", "value": 4.7, "unit": "nM"}, {"measurement": "CHP1-NHE1 inhibitory activity, in words", "setting": "[5]; summary of Table 6", "value": "remarkable CHP1-NHE1 inhibitory activity"}, {"measurement": "Activity at CaSR", "setting": "[6]", "value": "CaSR antagonist"}, {"measurement": "Effect on survival rate (Kaplan-Meier survival curve, FIG. 1)", "setting": "[7]", "value": "remarkably improved the survival rate"}, {"measurement": "RVSP", "setting": "[8]; [12]", "value": 48.3, "unit": "mmHg"}, {"measurement": "RVSP", "setting": "[8]; [13]", "value": 39.1, "unit": "mmHg"}, {"measurement": "RVSP", "setting": "[8]; [14]", "value": 28.0, "unit": "mmHg"}, {"measurement": "Effect on right ventricular systolic pressure (RVSP), in words", "setting": "[8]; at 28 days after MCT administration, summary of Table 2", "value": "remarkably improved"}, {"measurement": "RV/(LV + S)", "setting": "[9]; [12]", "value": 0.333}, {"measurement": "RV/(LV + S)", "setting": "[9]; [13]", "value": 0.307}, {"measurement": "RV/(LV + S)", "setting": "[9]; [14]", "value": 0.282}, {"measurement": "Effect on right ventricular hypertrophy, in words", "setting": "[9]; at 28 days after MCT administration, summary of Table 3", "value": "remarkably improved"}, {"measurement": "Thickness of pulmonary artery medial wall", "setting": "[10]; Diameter of pulmonary artery (50 μM-100 μM)", "value": 6.86}, {"measurement": "Thickness of pulmonary artery medial wall", "setting": "[10]; [15]", "value": 4.28}, {"measurement": "Effect on thickening of the pulmonary artery medial wall, in words", "setting": "[10]; at 28 days after MCT administration, summary of Table 4", "value": "remarkably improved"}, {"measurement": "Pulmonary artery occlusion", "setting": "[11]; [15]", "value": 0.20}, {"measurement": "Pulmonary artery occlusion", "setting": "[11]; Diameter of pulmonary artery", "value": 0.19}, {"measurement": "Effect on occlusion of the pulmonary artery, in words", "setting": "[11]; at 28 days after MCT administration, summary of Table 5", "value": "remarkably improved"}]}]}
